These results are taken from US20250019398A1, “NONAMERIC PEPTIDE HAVING EXCELLENT ANTIBACTERIAL ACTIVITY AGAINST GRAM-NEGATIVE BACTERIA AND ENANTIOMER THEREOF” (priority 2021, published 2025).

Assay [1] concerns Escherichia coli KCTC 1682. Nature of the assay: MIC, broth dilution. In kind it is cell-based. The settings on record: standard Gram-negative bacteria, 16 hours, read-out: Minimal inhibitory concentration (MIC), E. coli. The source says:
(§1) In addition, carbapenem-resistant E. coli NCCP16044 and carbapenem-resistant Klebsiella pneumonia NCCP 15782 were obtained from the NCCP, and three types of carbapenem-resistant A. baumanii CCARM 12004-6 were obtained from the Culture Collection of Antimicrobial Resistance Microbes (CCARM) (Cheongju City, Korea). The E. coli K1 (ATCC700973) strain used in the animal experiments was obtained from the American Type Culture Collection (ATCC) ([…]).
(§2) The antimicrobial activities of the peptides were measured by a minimal inhibitory concentration (MIC) analysis. The MIC was determined using a broth dilution method. All bacterial strains were grown overnight at 37° C. in a Muller-Hinton (MH) medium.

Assay [2] has as its system Acinetobacter baumannii KCCM 40203. Nature of the assay: MIC, broth dilution. The note with it: standard Gram-negative bacteria, 16 hours. In kind it is cell-based.
From the text: as §1, with “Among the bacterial strains used in the experiment, Escherichia coli KCTC 1682 was obtained from the Korean Collection for Type Cultures (KCTC) (Jeongeup, Korea), Acinetobacter baumannii KCCM 40203 and Pseudomonas aeruginosa KCCM 11328 were obtained from the Korean Culture Center of Microorganisms (KCCM) (Seoul, Korea), and Klebsiella pneumonia NCCP 16054 was obtained from the National Culture Collection for Pathogens (NCCP) (Osong, Korea). In” for “In”
as §2
For orientation: In broth dilution the organism is exposed to a series of concentrations in liquid medium.

Assay [3] relates to Klebsiella pneumonia NCCP 16054. Kind of assay: MIC, broth dilution. The class given is cell-based. The settings on record: standard Gram-negative bacteria, 16 hours.
From the text: as §1, with “Among the bacterial strains used in the experiment, Escherichia coli KCTC 1682 was obtained from the Korean Collection for Type Cultures (KCTC) (Jeongeup, Korea), Acinetobacter baumannii KCCM 40203 and Pseudomonas aeruginosa KCCM 11328 were obtained from the Korean Culture Center of Microorganisms (KCCM) (Seoul, Korea), and Klebsiella pneumonia NCCP 16054 was obtained from the National Culture Collection for Pathogens (NCCP) (Osong, Korea). In” for “In”
as §2

The subject of assay [4] is Pseudomonas aeruginosa KCCM 11328. Nature of the assay: MIC, broth dilution. In kind it is cell-based. The note with it: standard Gram-negative bacteria, 16 hours.
From the text: as §1, with “Among the bacterial strains used in the experiment, Escherichia coli KCTC 1682 was obtained from the Korean Collection for Type Cultures (KCTC) (Jeongeup, Korea), Acinetobacter baumannii KCCM 40203 and Pseudomonas aeruginosa KCCM 11328 were obtained from the Korean Culture Center of Microorganisms (KCCM) (Seoul, Korea), and Klebsiella pneumonia NCCP 16054 was obtained from the National Culture Collection for Pathogens (NCCP) (Osong, Korea). In” for “In”
as §2

The subject of assay [5] is carbapenem-resistant Klebsiella pneumonia NCCP 15782 (CRKP 15782). Nature of the assay: MIC, broth dilution. The class given is cell-based. The settings on record: 16 hours.
From the text: as §1, with “Among the bacterial strains used in the experiment, Escherichia coli KCTC 1682 was obtained from the Korean Collection for Type Cultures (KCTC) (Jeongeup, Korea), Acinetobacter baumannii KCCM 40203 and Pseudomonas aeruginosa KCCM 11328 were obtained from the Korean Culture Center of Microorganisms (KCCM) (Seoul, Korea), and Klebsiella pneumonia NCCP 16054 was obtained from the National Culture Collection for Pathogens (NCCP) (Osong, Korea). In” for “In”
as §2

The subject of assay [6] is carbapenem-resistant E. coli NCCP16044 (CREC 16044). Nature of the assay: microbe, parasite or virus in culture. In kind it is cell-based. The note with it: 16 hours, read-out: Minimal inhibitory concentration (MIC), CREC 16044.
From the text: as §1, with “Among the bacterial strains used in the experiment, Escherichia coli KCTC 1682 was obtained from the Korean Collection for Type Cultures (KCTC) (Jeongeup, Korea), Acinetobacter baumannii KCCM 40203 and Pseudomonas aeruginosa KCCM 11328 were obtained from the Korean Culture Center of Microorganisms (KCCM) (Seoul, Korea), and Klebsiella pneumonia NCCP 16054 was obtained from the National Culture Collection for Pathogens (NCCP) (Osong, Korea). In” for “In”
as §2

For assay [7], the system named is CRAB 12004 (carbapenem-resistant A. baumanii CCARM). Nature of the assay: MIC, broth dilution. In kind it is cell-based, A. baumannii. The note with it: 16 hours, read-out: Minimal inhibitory concentration (MIC), CRAB 12004.
From the text: as §1, with “Among the bacterial strains used in the experiment, Escherichia coli KCTC 1682 was obtained from the Korean Collection for Type Cultures (KCTC) (Jeongeup, Korea), Acinetobacter baumannii KCCM 40203 and Pseudomonas aeruginosa KCCM 11328 were obtained from the Korean Culture Center of Microorganisms (KCCM) (Seoul, Korea), and Klebsiella pneumonia NCCP 16054 was obtained from the National Culture Collection for Pathogens (NCCP) (Osong, Korea). In” for “In”
as §2

Assay [8] relates to CRAB 12005 (carbapenem-resistant A. baumanii CCARM). Nature of the assay: MIC, broth dilution. The settings on record: 16 hours, read-out: Minimal inhibitory concentration (MIC), CRAB 12005. In kind it is cell-based, A. baumannii.
From the text: as §1, with “Among the bacterial strains used in the experiment, Escherichia coli KCTC 1682 was obtained from the Korean Collection for Type Cultures (KCTC) (Jeongeup, Korea), Acinetobacter baumannii KCCM 40203 and Pseudomonas aeruginosa KCCM 11328 were obtained from the Korean Culture Center of Microorganisms (KCCM) (Seoul, Korea), and Klebsiella pneumonia NCCP 16054 was obtained from the National Culture Collection for Pathogens (NCCP) (Osong, Korea). In” for “In”
as §2

The subject of assay [9] is CRAB 12006 (carbapenem-resistant A. baumanii CCARM). Nature of the assay: MIC, broth dilution. The settings on record: 16 hours, read-out: Minimal inhibitory concentration (MIC), CRAB 12006. The class given is cell-based, A. baumannii.
From the text: as §1, with “Among the bacterial strains used in the experiment, Escherichia coli KCTC 1682 was obtained from the Korean Collection for Type Cultures (KCTC) (Jeongeup, Korea), Acinetobacter baumannii KCCM 40203 and Pseudomonas aeruginosa KCCM 11328 were obtained from the Korean Culture Center of Microorganisms (KCCM) (Seoul, Korea), and Klebsiella pneumonia NCCP 16054 was obtained from the National Culture Collection for Pathogens (NCCP) (Osong, Korea). In” for “In”
as §2

Assay [10] concerns intact CRAB bacteria. Kind of assay: diSC3-5 membrane depolarization. The note with it: 4 μM. The class given is cell-based, A. baumannii. Here is the method: Depolarization ability by peptides was measured using a membrane potential-sensitive dye 3,3′-dipropylthiadicarbocyanine iodide (diSC3-5) using intact CRAB bacteria. CRAB cells were washed using a wash buffer (5 mM HEPES, 20 mM glucose, pH 7.4). The cells were resuspended in a dilution buffer (5 mM HEPES, 20 mM glucose, 0.1 M KCl, pH 7.4) and then cultured with a diSC3-5 dye (1 hour). Finally, the fluorescence changes of cells treated with various concentrations of peptides, a negative control (cells with dye) and a positive control (1% Triton X-100) were recorded using a fluorescence spectrophotometer, and the results are expressed as percent depolarization.

Assay [11] relates to CRAB 12006. Nature of the assay: Crystal violet biofilm inhibition. The class given is cell-based, A. baumannii. The note with it: 0-32 μM, 16 h. On the procedure:
A crystal-violet-based assay was used to investigate the biofilm inhibition ability of R-Pro9-3D against A. baumannii standard bacteria and a CRAB 12006 line. […] Thereafter, bacterial cells were fixed with methanol (100%, 15 minutes) and then stained with crystal violet (0.1% (w/v) in 0.25% (v/v) acetic acid for 1 hour). The plate was washed with distilled H2O, dried and dissolved in ethanol (100% v/v). Color development, which indicates the extent of biofilm, was measured at 595 nm and expressed as biofilm formation percentage.

Converted amounts (≈) assume the structure as drawn. Where two headings read alike, the source gives them in different places.

Turning to `CC[C@H](C)[C@H](NC(=O)CN)C(=O)NCC(=O)N[C@@H](C)C(=O)N[C@H](C(=O)N[C@@H](CC(C)C)C(=O)N[C@@H](CCCCN)C(=O)N[C@H](C(=O)N[C@@H](CC(C)C)C(=O)N[C@H](C(=O)N[C@H](C(=O)NCC(=O)N[C@@H](CC(C)C)C(=O)N1CCC[C@H]1C(=O)N[C@@H](C)C(=O)N[C@@H](CC(C)C)C(=O)N[C@H](C(=O)N[C@@H](CO)C(=O)N[C@@H](Cc1c[nH]c2ccccc12)C(=O)N[C@H](C(=O)N[C@@H](CCCCN)C(=O)N[C@@H](CCCNC(=N)N)C(=O)N[C@@H](CCCCN)C(=O)N[C@@H](CCCNC(=N)N)C(=O)N[C@@H](CCC(N)=O)C(=O)N[C@@H](CCC(N)=O)C(N)=O)[C@@H](C)CC)[C@@H](C)CC)[C@@H](C)O)[C@@H](C)O)C(C)C)C(C)C` [Melittin], the MIC in assay [1] is given as 8 µM (≈ 22.8 µg/mL); in assay [6], 8 µM (≈ 22.8 µg/mL); in [7] it was 4 µM (≈ 11.4 µg/mL); in [8] it was 4 µM (≈ 11.4 µg/mL); in assay [9], 4 µM (≈ 11.4 µg/mL). The “Minimal inhibitory concentration (MIC), A. baumannii” value in assay [2] came to 4 µM (≈ 11.4 µg/mL). For the same compound, the “Minimal inhibitory concentration (MIC), K. pneumonia” value in [3] was determined as 32 µM (≈ 91.1 µg/mL). In addition, in [4], the “Minimal inhibitory concentration (MIC), P. aeruginosa” value was 16 µM (≈ 45.5 µg/mL). Besides, the “Minimal inhibitory concentration (MIC), CRKP 15782” value in assay [5] was 32 µM (≈ 91.1 µg/mL). The compound also had a Depolarization in assay [10] of 75.6%.
`C[C@@H](O)[C@H]1C(=O)N2C(C(=O)O)=C(S[C@@H]3CN[C@H](C(=O)N(C)C)C3)[C@H](C)[C@H]12` [Meropenem]: the MIC stood at 0.25 µM (≈ 0.0959 µg/mL) in [1] (Escherichia coli, KCTC1682) and 8 µM (≈ 3.07 µg/mL) in [6] (Escherichia coli). The “Biofilm formation inhibition, CRAB 12006” value in assay [11] was “remarkably lower”.
